Test results from patent US20260028319A1, “INTERMEDIATE SALT FOR THE PREPARATION OF BIS(FLUOROALKYL) BENZODIAZEPINONE COMPOUNDS” (Immunome, Inc., priority 2022, published 2026).

Columns and labels:
Format in all cases: physicochemical
[1] = (I-1) and (1) stability study, water content by KF; conditions: for Water content (by KF) following storage: 6 months; for Water content (by KF), Initial Results: before storage
Protocol: (§1) Assay and water content of the oily free acid (I-1) were tested following a 6-month period in 25° C./60% RH (relative humidity) and 40° C./75% RH (Table 2a).

[2] = (I-1) and (1) stability study, assay by HPLC; conditions: for Stability, in words: free acid versus CHA salt; for Assay (by HPLC), Initial Results: before storage
Protocol: as §1
Similarly, the corresponding CHA salt (1), which is a powder, was tested for its purity/assay:
It could be stipulated that increased water amount over time in the free acid gives rise to the observed assay which deteriorates as the test progresses.

[3] = Stability of Na, CHA and tBuNH2 salts of (I-1), GC/MS assay
Protocol: Na and tBuNH2 salts of (I-1) were prepared. Stability of the salts was tested and compared to the stability of the CHA salt ((1)).
Table 3 also emphasizes that specific salts of (I-1) provide high purity over time. However, it cannot be said that any possible salt (any possible cation) of (I-1) will give rise to such high stability over time.

Structure (SMILES) | Water content (by KF) following storage ([1]; 25° C./60% RH) | Water content (by KF) following storage ([1]; 40° C./75% RH) | Water content (by KF), Initial Results [1] | Assay by HPLC ([2]; 1 month, 2-8° C.) | Assay by HPLC ([2]; 1 month, 25° C./60% RH) | Assay by HPLC ([2]; 1 month, 40° C./75% RH) | Assay by HPLC ([2]; 3 months, 2-8° C.) | Assay by HPLC ([2]; 3 months, 25° C./60% RH) | Assay by HPLC ([2]; 3 months, 40° C./75% RH) | Assay by HPLC ([2]; 6 months, 2-8° C.) | Assay (by HPLC) following storage ([2]; 6 months, 25° C./60% RH) | Assay (by HPLC) following storage ([2]; 6 months, 40° C./75% RH) | Stability, in words [2] | Assay (by HPLC), Initial Results [2] | Purity (GC/MS assay) At 2-8° C. for 1 week ([3]; 2-8° C., 1 week) | Purity (GC/MS assay) At 45° C. for 1 week ([3]; 45° C., 1 week) | Stability among salts of (I-1), in words ([3]; Na, CHA and tBuNH2 salts compared) | Stability, in words ([2]; listed as free acid compound)
CC(C)(C)OC(=O)C[C@@H](CCC(F)(F)F)C(=O)O [(1)] | 0.3% | 0.3% | 0.2% | 96.2 % w/w | 94.8 % w/w | 94.3 % w/w | 95.1 % w/w | 94.5 % w/w | 93.0 % w/w | 94.6 % w/w | 95.1 % w/w | 94.4 % w/w | much more stable | 95.0 % w/w | 95.8 % w/w | 98.2 % w/w | most stable salt | 
CC(C)(C)OC(=O)C[C@@H](CCC(F)(F)F)C(=O)O [(I-1), (2R)-2-(2-tert-Butoxy-2-oxoethyl)-5,5,5-trifluoropentanoic acid, reference compound] | 2.0% | 2.3% | 0.8% |  |  |  |  |  |  |  | 92.8 % w/w | 84.5 % w/w |  | 93.5 % w/w |  |  |  | unstable
